Key:
HepG2 cells [1] = assay: Oxidation of MitoDPPP loaded into HepG2 cells, hydrogen peroxide compared with tBHP, microplate reader; type: cell-based; conditions: MitoDPPP 16 μM loaded 10 minutes, FIG. 4
Method: The oxidation of MitoDPPP loaded into HepG2 cells was compared for hydrogen peroxide and tBHP. A 0.1% dimethylsulfoxide solution of MitoDPPP (16 μM) was prepared. The solution was loaded into HepG2 cells for 10 minutes. After washing the cells with PBS, hydrogen peroxide was added to the cells and the increase in fluorescence intensity was monitored on a microplate reader.

HepG2 cells [2] = assay: Loading into HepG2 cells and oxidation stimulated with tert-butoxyhydroperoxide (tBHP), fluorescence microscopy; type: cell-based; conditions: MitoDPPP 16 μM loaded 2 minutes, ten minutes after tBHP, FIG. 3
Method: Loading of MitoDPPP into HepG2 cells and oxidation stimulated with tert-butoxyhydroperoxide (tBHP) were monitored. A 0.1% dimethylsulfoxide solution of MitoDPPP (16 μM) was prepared. The solution was loaded into HepG2 cells for 2 minutes to stain the cells. The cells were washed with PBS and observed under a fluorescence microscope. Next, tert-butoxyhydroperoxide (tBHP) was added to the cells. Ten minutes later, the cells were observed under the fluorescence microscope.

[3] = Oxidation of MitoDPPP in an aqueous solution with hydrogen peroxide and tBHP; conditions: FIG. 4
HepG2 cells [4] = assay: Loading of MitoDPPP into HepG2 cells, fluorescence microscopy, comparison with Mito Tracker Green FM; type: cell-based; conditions: fluorescence microscope, comparison/double-staining with mitochondria-selective fluorescent dye, FIG. 2
Method: Loading of MitoDPPP into HepG2 cells was examined. A 20% dimethylsulfoxide solution of MitoDPPP (16 μM) was prepared and the solution was loaded into HepG2 cells for 10 minutes to stain the cells. After washing with PBS, the cells were observed under a fluorescence microscope.

[5] = Oxidation of MitoDPPP with hydrogen peroxide in dimethylsulfoxide solution, fluorescence intensity over time; conditions: MitoDPPP 16 μM in dimethylsulfoxide, 10 mM H2O2, 10 minutes, FIG. 1
Method: The time scale changes in fluorescence intensity were monitored for the oxidation with hydrogen peroxide of [3-(4-Phenoxyphenylphosphinopyrenylphosphino)propyl]triphenylphosphonium iodide [Ia] (MitoDPPP) obtained in EXAMPLE 1.
After 10 mM H2O2 was added dropwise to a dimethylsulfoxide solution of MitoDPPP (16 μM), fluorescence intensities at the fluorescence wavelength of 380 nm were measured for 10 minutes.

## [I-].c1ccc(Oc2ccc(P(CCC[P+](c3ccccc3)(c3ccccc3)c3ccccc3)c3ccc4ccc5cccc6ccc3c4c56)cc2)cc1 (stereo not drawn) [MitoDPPP]
HepG2 cells [1]
  oxidation with hydrogen peroxide of MitoDPPP loaded into HepG2 cells: not oxidized
HepG2 cells [2]
  brightness of stained cells after tBHP loading compared to before: increased
[3]; hydrogen peroxide
  oxidation with hydrogen peroxide in an aqueous solution: proceeds rapidly
[3]; tBHP
  oxidation with tBHP in an aqueous solution: proceeds rapidly
HepG2 cells [4]
  localization in cells: localized in mitochondria
[5]
  fluorescence intensity at the fluorescence wavelength of 380 nm on oxidation with hydrogen peroxide: increase in the fluorescence intensity

From US8420865B2, “Phosphine compound, process for producing the same, and peroxide scavenger using the same” (Fukuoka University, priority 2008, dated 2013)
